According to ChEMBL document CHEMBL4373699, “Structure-Guided Discovery of a Selective Mcl-1 Inhibitor with Cellular Activity” (J Med Chem, 2019):

Legend:
Bcl-2-like protein 1 [1] = biological target: T1, Bcl-2-like protein 1 (Homo sapiens, UniProt Q07817); assay: Inhibition of Bcl-XL (unknown origin) by fluorescence polarization assay
[2] = biological target: T2, Apoptosis regulator Bcl-2 (Homo sapiens, UniProt P10415); assay: biochemical
[3] = biological target: T3, Induced myeloid leukemia cell differentiation protein Mcl-1 (Homo sapiens, UniProt Q07820); assay: biochemical
[4] = biological target: T2, Apoptosis regulator Bcl-2; assay: Displacement of N-terminal fluorescein labelled Puma-BH3 peptide from human N-terminal thrombin cleavage site-fused/His6-tagged Bcl-2 expressed in Escherichia coliBL21(DE3) pLysS cells at 10 uM by fluorescence polarization assay relative to control
[5] = biological target: T3, Induced myeloid leukemia cell differentiation protein Mcl-1; assay: biochemical; remark: listed apart in the source
Description: Binding affinity to TEV-fused His-tagged human Mcl-1 expressed in Escherichia coliBL21(DE3) pLysS cells by Isothermal Titration Calorimetry

Bcl-2-like protein 1 [6] = biological target: T1, Bcl-2-like protein 1; assay: Inhibition of Bcl-XL (unknown origin) at 0.5 mM by fluorescence polarization assay relative to control
Bcl-2-like protein 1 [7] = biological target: T1, Bcl-2-like protein 1; assay: Inhibition of Bcl-XL (unknown origin) at 10 uM by fluorescence polarization assay relative to control
[8] = mouse, plasma
Description: Fraction unbound in mouse plasma

[9] = human, plasma
Description: Fraction unbound in human plasma

in vivo [10] = settings: mouse, po, 3 mg/kg
Description: AUCt in mouse at 3 mpk, po

in vivo [11] = settings: mouse, iv, 1 mg/kg
Description: Half-life in mouse at 1 mpk, iv

Cytochrome P450 1A2 = biological target: T4, Cytochrome P450 1A2 (Homo sapiens, UniProt P05177)
T4 sequence (P05177 whole entry): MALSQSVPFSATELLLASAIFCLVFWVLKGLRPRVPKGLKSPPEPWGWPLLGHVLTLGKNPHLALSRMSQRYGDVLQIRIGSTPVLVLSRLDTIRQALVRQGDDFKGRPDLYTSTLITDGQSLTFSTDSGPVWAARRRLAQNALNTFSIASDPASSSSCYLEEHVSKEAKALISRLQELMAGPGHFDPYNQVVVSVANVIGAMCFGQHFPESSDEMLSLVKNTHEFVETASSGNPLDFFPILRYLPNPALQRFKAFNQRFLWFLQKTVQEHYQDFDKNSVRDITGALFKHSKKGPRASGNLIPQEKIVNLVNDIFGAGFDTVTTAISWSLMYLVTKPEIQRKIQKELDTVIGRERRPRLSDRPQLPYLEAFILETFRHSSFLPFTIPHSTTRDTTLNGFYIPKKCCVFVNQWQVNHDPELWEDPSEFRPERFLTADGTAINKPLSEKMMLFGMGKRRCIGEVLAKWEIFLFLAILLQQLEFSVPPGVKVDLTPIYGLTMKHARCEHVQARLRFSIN
Description: Inhibition of human CYP1A2

in vivo [12] = settings: mouse, po, 3 mg/kg; remark: listed apart in the source
Description: Half-life in mouse at 3 mpk, po

in vivo [13] = settings: mouse, iv, 1 mg/kg; remark: listed apart in the source
Description: AUCt in mouse at 1 mpk, iv

in vivo [14] = settings: mouse, iv, 1 mg/kg; remark: listed apart in the source
Description: Volume of distribution in mouse at 1 mpk, iv

Cytochrome P450 3A4 = Cytochrome P450 3A4 (Homo sapiens, UniProt P08684); assay: Inhibition of human CYP3A4; format: ADME
Cytochrome P450 2C9 = Cytochrome P450 2C9 (Homo sapiens, UniProt P11712)
Description: Inhibition of human CYP2C9

Cytochrome P450 2D6 = Cytochrome P450 2D6 (Homo sapiens, UniProt P10635)
Description: Inhibition of human CYP2D6

in vivo [15] = settings: mouse, plasma, iv, 1 mg/kg
Description: Plasma clearance in mouse at 1 mpk, iv

in vivo [16] = settings: mouse, po, 3 mg/kg; remark: listed apart in the source
Description: Oral bioavailability in mouse at 3 mpk

in vivo [17] = settings: mouse, po, 3 mg/kg; remark: listed apart in the source
Description: Cmax in mouse at 3 mpk, po

T2 sequence (P10415 whole entry): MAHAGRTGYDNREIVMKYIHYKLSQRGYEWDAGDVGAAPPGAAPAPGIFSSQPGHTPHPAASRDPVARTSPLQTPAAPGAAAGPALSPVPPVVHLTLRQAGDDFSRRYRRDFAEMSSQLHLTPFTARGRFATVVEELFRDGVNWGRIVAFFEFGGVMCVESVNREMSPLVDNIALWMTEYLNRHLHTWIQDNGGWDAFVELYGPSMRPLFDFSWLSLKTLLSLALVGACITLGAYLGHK
T1 sequence (Q07817 whole entry): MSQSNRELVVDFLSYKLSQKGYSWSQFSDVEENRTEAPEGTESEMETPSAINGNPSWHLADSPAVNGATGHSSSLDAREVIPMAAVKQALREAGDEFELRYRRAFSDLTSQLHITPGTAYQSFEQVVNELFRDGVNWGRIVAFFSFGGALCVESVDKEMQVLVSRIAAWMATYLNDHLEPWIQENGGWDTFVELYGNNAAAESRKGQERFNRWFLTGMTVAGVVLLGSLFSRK
T3 sequence (Q07820 whole entry, the tested form may be a part): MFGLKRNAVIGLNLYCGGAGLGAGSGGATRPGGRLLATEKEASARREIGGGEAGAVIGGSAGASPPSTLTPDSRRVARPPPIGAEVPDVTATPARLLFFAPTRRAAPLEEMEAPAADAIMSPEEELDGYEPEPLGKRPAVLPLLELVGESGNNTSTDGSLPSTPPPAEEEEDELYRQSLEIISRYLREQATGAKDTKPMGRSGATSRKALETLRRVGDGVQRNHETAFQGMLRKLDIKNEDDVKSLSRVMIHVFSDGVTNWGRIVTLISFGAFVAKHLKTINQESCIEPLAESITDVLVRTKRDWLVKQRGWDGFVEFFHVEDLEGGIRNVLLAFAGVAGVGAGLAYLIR
Chain of Cytochrome P450 2D6 (P10635 whole entry): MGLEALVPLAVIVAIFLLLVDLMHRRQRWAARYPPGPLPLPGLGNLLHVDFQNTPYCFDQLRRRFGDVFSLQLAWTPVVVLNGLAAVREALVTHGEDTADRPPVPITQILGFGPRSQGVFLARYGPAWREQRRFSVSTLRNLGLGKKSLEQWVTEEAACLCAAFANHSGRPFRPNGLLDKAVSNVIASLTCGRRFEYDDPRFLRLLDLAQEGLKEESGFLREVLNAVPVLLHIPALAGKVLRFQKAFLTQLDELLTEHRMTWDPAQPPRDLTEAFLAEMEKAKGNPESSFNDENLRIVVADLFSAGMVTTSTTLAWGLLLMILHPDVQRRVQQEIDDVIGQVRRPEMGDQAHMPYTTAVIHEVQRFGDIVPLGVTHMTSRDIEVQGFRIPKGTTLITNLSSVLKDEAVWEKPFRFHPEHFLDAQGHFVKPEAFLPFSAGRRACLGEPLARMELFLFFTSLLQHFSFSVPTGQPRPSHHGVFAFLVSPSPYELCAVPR
Chain of Cytochrome P450 3A4 (P08684 whole entry): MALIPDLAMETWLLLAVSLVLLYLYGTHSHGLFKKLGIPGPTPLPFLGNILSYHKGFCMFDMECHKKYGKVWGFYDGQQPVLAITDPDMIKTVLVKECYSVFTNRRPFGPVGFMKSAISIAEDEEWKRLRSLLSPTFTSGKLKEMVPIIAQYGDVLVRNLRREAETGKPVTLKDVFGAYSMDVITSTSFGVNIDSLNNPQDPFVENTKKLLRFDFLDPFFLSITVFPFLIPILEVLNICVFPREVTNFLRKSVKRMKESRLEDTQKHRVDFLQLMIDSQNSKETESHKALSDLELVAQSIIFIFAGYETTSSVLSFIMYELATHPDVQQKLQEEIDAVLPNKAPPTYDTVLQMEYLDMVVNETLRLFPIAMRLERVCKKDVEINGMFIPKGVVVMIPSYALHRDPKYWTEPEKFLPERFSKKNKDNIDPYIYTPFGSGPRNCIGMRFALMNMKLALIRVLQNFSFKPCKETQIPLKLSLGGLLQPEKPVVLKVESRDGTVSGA
Chain of Cytochrome P450 2C9 (P11712 whole entry): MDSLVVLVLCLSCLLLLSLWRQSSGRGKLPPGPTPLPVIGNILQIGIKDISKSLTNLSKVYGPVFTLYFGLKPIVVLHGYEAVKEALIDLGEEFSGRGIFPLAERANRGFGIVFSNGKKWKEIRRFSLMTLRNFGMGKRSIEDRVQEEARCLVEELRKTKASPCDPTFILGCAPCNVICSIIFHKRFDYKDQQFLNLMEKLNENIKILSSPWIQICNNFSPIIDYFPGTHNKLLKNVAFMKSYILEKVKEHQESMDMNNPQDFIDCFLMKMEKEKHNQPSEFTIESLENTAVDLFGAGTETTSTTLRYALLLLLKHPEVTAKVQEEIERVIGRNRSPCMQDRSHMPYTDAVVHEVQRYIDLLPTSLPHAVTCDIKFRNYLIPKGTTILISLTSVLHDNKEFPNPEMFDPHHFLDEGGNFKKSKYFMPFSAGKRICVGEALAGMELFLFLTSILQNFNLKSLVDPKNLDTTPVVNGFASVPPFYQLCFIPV

Structure (SMILES) | Ki (Bcl-2-like protein 1 [1]) | Ki [2] | Ki [3] | also measured
CCc1sc2ncnc(N[C@@H](C)C(=O)O)c2c1-c1cccc(Oc2ccc(F)cc2)c1 | 33 µM | 98 µM | 130 µM | 
CCc1sc2ncnc(O[C@H](C)C(=O)O)c2c1-c1ccc2ccccc2c1 |  |  | 6 µM | 
CCc1sc2nc(S(C)(=O)=O)nc(N[C@H](C)C(=O)O)c2c1-c1cccc(Oc2ccc(F)cc2)c1 | 26 µM | 51 µM | 44 µM | 
CCc1sc2ncnc(N[C@@H](C)C(=O)O)c2c1-c1ccc(SC)cc1 | 216 µM | 359 µM | 44 µM | 
CCc1sc2ncnc(N[C@H](C)C(=O)O)c2c1-c1cccc(O)c1 |  | 5 µM | 45 µM | 
CCc1sc2ncnc(O[C@H](Cc3ccccc3)C(=O)O)c2c1-c1cccc2[nH]ccc12 (stereo in doubt; 9b) [listing 1 of 2 here] |  |  |  | inhibition [4]: 11%
CCc1sc2ncnc(N[C@H](Cc3ccccc3)C(=O)O)c2c1-c1ccc(OCCN2CCN(C)CC2)c(Cl)c1C (stereo in doubt; 17b) |  |  | 170 µM | 
CCc1sc2ncnc(N[C@H](Cc3ccccc3)C(=O)O)c2c1-c1cccc(Oc2ccc(F)cc2)c1 | 24 µM | 24 µM | 51 µM | 
CCc1sc2ncnc(O[C@H](C)C(=O)O)c2c1-c1ccccc1C (stereo in doubt; 7d) |  |  | 18 µM | 
CCc1sc2ncnc(N[C@H](Cc3ccccc3OCCN3CCN(C)CC3)C(=O)O)c2c1-c1cccc(Cl)c1C |  |  | 2 µM | Kd [5]: 0.36 µM
CCc1sc2ncnc(O[C@H](Cc3ccccc3)C(=O)O)c2c1-c1ccc(OCC(=O)N2CCN(C)CC2)c(Cl)c1C |  |  | 0.021 µM | 
C[C@@H](Nc1ncnc2scc(-c3cccc(O)c3)c12)C(=O)O | 287 µM |  | 59 µM | 
C=C(C)c1sc2ncnc(N[C@H](Cc3ccccc3)C(=O)O)c2c1-c1cccc(Cl)c1C |  | 5.4 µM | 19 µM | inhibition (Bcl-2-like protein 1 [6]): 35%
CCc1sc2ncnc(O[C@H](Cc3ccccc3)C(=O)O)c2c1-c1ccccc1C (stereo in doubt; 9d) [listing 1 of 2 here] |  |  |  | inhibition (Bcl-2-like protein 1 [7]): 2%; inhibition [4]: 5%
CCc1sc2ncnc(N[C@@H](C(=O)O)c3ccccc3)c2c1-c1cccc(O)c1 | 319 µM | 470 µM | 7.7 µM | 
CCc1sc2ncnc(O[C@H](Cc3ccccc3)C(=O)O)c2c1-c1cc2cc(CN(C)C)oc2c(Cl)c1C |  |  | 0.076 µM | 
CCc1sc2ncnc(O[C@H](Cc3ccccc3)C(=O)O)c2c1-c1cc(CN2CCN(C)CC2)c(O)c(Cl)c1C |  |  | 0.032 µM | 
CCc1sc2ncnc(N[C@H](C)C(=O)O)c2c1-c1ccccc1C |  |  | 100 µM | 
C[C@@H](Nc1ncnc2sc(-c3ccccc3)c(-c3cccc(O)c3)c12)C(=O)O | 42 µM | 49 µM | 27 µM | 
CCc1sc2ncnc(N[C@H](C)C(=O)O)c2c1-c1ccccc1OCc1ccccc1 |  |  | 24 µM | 
CCc1sc2ncnc(O[C@H](Cc3ccccc3)C(=O)O)c2c1-c1cccc2[nH]ccc12 (stereo in doubt; 9a) |  |  | 0.49 µM | 
CCc1sc2ncnc(N[C@@H](C)C(=O)O)c2c1CC |  | 74 µM | 50 µM | IC50 [2]: 164 µM
CCc1sc2ncnc(O[C@H](Cc3ccccc3)C(=O)O)c2c1-c1ccccc1C (stereo in doubt; 9c) |  |  | 3.4 µM | 
CCc1sc2ncnc(NC(CO)C(=O)O)c2c1-c1cccc(Oc2ccc(F)cc2)c1 (racemic) | 87 µM |  | 61 µM | 

Structure (SMILES) | Ki (Bcl-2-like protein 1 [1]) | Ki [2] | Ki [3] | also measured
CCc1sc2ncnc(N[C@@H](Cc3ccccc3)C(=O)O)c2c1-c1cccc(Oc2ccc(F)cc2)c1 | 18 µM | 24 µM | 77 µM | 
CCc1sc2ncnc(O[C@H](C)C(=O)O)c2c1-c1ccccc1C (stereo in doubt; 7e) |  |  | 15 µM | 
CCc1sc2ncnc(O[C@H](Cc3ccccc3)C(=O)O)c2c1-c1ccccc1C (stereo in doubt; 9d) [listing 2 of 2 here] |  |  | 0.89 µM | 
CCc1sc2ncnc(O[C@H](Cc3ccccc3)C(=O)O)c2c1-c1cccc(Br)c1C (stereo in doubt; 10a) |  |  | 5.3 µM | 
CCc1sc2ncnc(O[C@H](Cc3ccccc3)C(=O)O)c2c1-c1cccc(Br)c1C (stereo in doubt; 10b) |  |  | 0.33 µM | 
CCc1sc2ncnc(N[C@H](C(=O)O)c3ccccc3)c2c1-c1cccc(O)c1 | 107 µM | 269 µM | 27 µM | 
CCc1sc2ncnc(NC(C(=O)O)c3ccccc3)c2c1-c1cccc(Oc2ccc(F)cc2)c1 (racemic) | 15 µM | 13 µM | 68 µM | 
CCc1sc2ncnc(N[C@@H](C)C(=O)O)c2c1-c1ccccc1 |  | 418 µM | 110 µM | 
CCNS(=O)(=O)c1cccc(-c2nc(N[C@H](C)C(=O)O)c3c(-c4cccc(Oc5ccc(F)cc5)c4)c(CC)sc3n2)c1 | 39 µM | 1.3 µM | 50 µM | 
CCc1sc2ncnc(N[C@@H](Cc3ccccc3)C(=O)O)c2c1-c1cccc(O)c1 |  |  | 58 µM | 
CCc1sc2ncnc(O[C@H](C)C(=O)O)c2c1-c1ccc(C(C)C)cc1 |  |  | 8.1 µM | 
CCc1sc2ncnc(N[C@H](Cc3ccccc3)C(=O)O)c2c1-c1cccc(O)c1 |  |  | 10 µM | 
CCc1sc2ncnc(O[C@H](Cc3ccccc3)C(=O)O)c2c1-c1cccc2[nH]ccc12 (stereo in doubt; 9b) [listing 2 of 2 here] |  |  | 0.64 µM | 
CCc1sc2ncnc(N[C@H](Cc3ccccc3)C(=O)O)c2c1-c1ccc(OCCN2CCN(C)CC2)c(Cl)c1C (stereo in doubt; 17a) |  |  | 0.22 µM | Fu [8]: 0.2%; Fu [9]: 0.2%; AUC(0-t) (in vivo [10]): 168 ng·h/mL; half-life (in vivo [11]): 0.65 h; IC50 (Cytochrome P450 1A2): ≥ 20 µM; half-life (in vivo [12]): 3.8 h; AUC(0-t) (in vivo [13]): 509 ng·h/mL; Vd (in vivo [14]): 0.9 L/kg; IC50 (Cytochrome P450 3A4): 5.2 µM; IC50 (Cytochrome P450 2C9): ≥ 20 µM; IC50 (Cytochrome P450 2D6): ≥ 20 µM; clearance (in vivo [15]): 33 mL/min/kg; bioavailability (in vivo [16]): 16%; Cmax (in vivo [17]): 64 ng/mL
CCc1sc2ncnc(N[C@H](CC3CCCCC3)C(=O)O)c2c1-c1cccc(Oc2ccc(F)cc2)c1 | 17 µM | 8.1 µM | 53 µM | 
CCc1sc2ncnc(N[C@H](Cc3ccccc3)C(=O)O)c2c1-c1cccc2[nH]ccc12 (stereo in doubt; 8a) | 135 µM |  | 1.6 µM | 
CCc1sc2ncnc(N[C@@H](C)C(=O)O)c2c1-c1cccc(C(F)(F)F)c1 |  | 437 µM | 21 µM | 
CCc1sc2ncnc(N[C@H](Cc3ccccc3)C(=O)O)c2c1-c1cccc2[nH]ccc12 (stereo in doubt; 8b) |  |  | 5.7 µM | 
CCc1sc2ncnc(N[C@H](C)C(=O)O)c2c1-c1cccc(Oc2ccc(F)cc2)c1 |  | 6.1 µM | 19 µM | 
CCc1sc2ncnc(O[C@H](Cc3ccccc3)C(=O)O)c2c1-c1cccc(Cl)c1C |  | 36 µM | 0.81 µM | 
O=C(O)[C@@H](Cc1ccccc1)Nc1ncnc2sc(-c3ccccc3)c(-c3cccc(O)c3)c12 |  | 21 µM | 24 µM | 
CCc1sc2nc(-c3cccnc3)nc(N[C@H](C)C(=O)O)c2c1-c1cccc(Oc2ccc(F)cc2)c1 | 18 µM | 4.1 µM | 8.4 µM | 
CCc1sc2ncnc(N[C@H](C)C(=O)O)c2c1-c1ccc2ccccc2c1 |  |  | 110 µM | 
CCc1sc2ncnc(N[C@H](Cc3ccccc3OC)C(=O)O)c2c1-c1cccc(Cl)c1C |  |  | 0.26 µM | Kd [5]: 0.024 µM
